Measured values as given in patent US9062004B2, “Cannabinoid-2 agonists” (Allergan, Inc., priority 2010, dated 2015).
Read-outs that look alike come from different tables or passages of the source.

What was measured:
[1] = molecular target: human CB2 cannabinoid receptor (Homo sapiens (Human), UniProt P34972); assay: Radioligand binding assay, CB2 ([3H]-CP 55,940 competition); details: for CB2 Selectivity: CB2 versus CB1 binding (ratio of CB1 IC50 to CB2 IC50); for IC50: plasma membranes of HEK 293 EBNA cells transfected with human CB2, 0.72 nM [3H]-CP 55,940, NA = not active
Experimental: (§1) A. Radioligand Binding Assay
(§2) Plasma membranes prepared from HEK 293 EBNA cells transfected with human CB1 or CB2 cannabinoid receptors ([…] protein, receptor concentration; PerkinElmer) were used for the radioligand binding studies. The composition of incubation buffer for CB1 assay was 50 mM Tris base, 2.5 mM EDTA, 5 mM MgCl2 and 0.5 mg/ml fatty acid free BSA and for CB2 assay was 50 mM Tris base, 2.5 mM EGTA, 5 mM MgCl2 and 1 mg/ml fatty acid free BSA; pH was adjusted to 7.4 by adding 1N HCl. Plasma membranes were diluted with incubation buffer to provide a final protein concentration of 2.4 μg (CB1) or 8 μg (CB2) per well in non-binding surface polystyrene 96-well assay plates (Corning). Compound solutions were prepared in silanized glass tubes and dispensed using pipette tips with SUPERSLIK™ surface. Competition studies were performed using a final concentration of 0.72 nM [^3H]-CP 55,940 (100-180 Ci/mmol, specific activity; PerkinElmer) against test compounds. Non-specific binding was determined using 10 uM of unlabeled CP 55,940. Incubations were performed in 96-well assay plates at a final volume of 200 ul for 90 min (CB1) or 60 min (CB2) at room temperature. Binding reactions were terminated by the addition of ice-cold incubation buffer and rapid filtration through a glass fiber filter using a cell harvester (Inotech). This was followed by 8 additional washes. The glass fiber filter (0.26 mm thickness, 1-1.5 um retention; Inotech) was presoaked in cold incubation buffer containing 0.05% polyethylenimine. The filters were oven-dried at 50° C. for 60 min and counting performed using a Beckman Coulter LS 6500 Multi-Purpose Scintillation Counter (Beckman-Coulter). Binding was determined in duplicate for at least 4 separate experiments.

[2] = tested on: mouse isolated vas deferens; assay: Mouse isolated vas deferens (MVD) bioassay, electrically stimulated contractions; format: cell-based; details: Mus musculus
[3] = molecular target: human CB1 cannabinoid receptor (Homo sapiens (Human), UniProt P21554); assay: Radioligand binding assay, CB1 ([3H]-CP 55,940 competition); details: plasma membranes of HEK 293 EBNA cells transfected with human CB1; 0.72 nM [3H]-CP 55,940; NA = not active
Experimental: as §1, §2

[4] = vas deferens of male Swiss Webster mice, electrically evoked contractions, NA = not active, read-out: MVD Assay EC50

Sequence of human CB2 cannabinoid receptor (P34972 whole entry): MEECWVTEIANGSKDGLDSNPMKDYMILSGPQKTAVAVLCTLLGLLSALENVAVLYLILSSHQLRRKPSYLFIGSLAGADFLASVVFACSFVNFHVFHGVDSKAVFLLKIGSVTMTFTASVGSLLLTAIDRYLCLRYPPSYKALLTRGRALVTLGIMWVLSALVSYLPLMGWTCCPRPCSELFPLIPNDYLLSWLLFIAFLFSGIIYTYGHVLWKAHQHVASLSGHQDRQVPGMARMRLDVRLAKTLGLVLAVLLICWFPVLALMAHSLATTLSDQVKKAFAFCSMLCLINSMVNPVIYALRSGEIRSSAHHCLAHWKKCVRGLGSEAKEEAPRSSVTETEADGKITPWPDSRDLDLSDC
Sequence of human CB1 cannabinoid receptor (P21554 whole entry): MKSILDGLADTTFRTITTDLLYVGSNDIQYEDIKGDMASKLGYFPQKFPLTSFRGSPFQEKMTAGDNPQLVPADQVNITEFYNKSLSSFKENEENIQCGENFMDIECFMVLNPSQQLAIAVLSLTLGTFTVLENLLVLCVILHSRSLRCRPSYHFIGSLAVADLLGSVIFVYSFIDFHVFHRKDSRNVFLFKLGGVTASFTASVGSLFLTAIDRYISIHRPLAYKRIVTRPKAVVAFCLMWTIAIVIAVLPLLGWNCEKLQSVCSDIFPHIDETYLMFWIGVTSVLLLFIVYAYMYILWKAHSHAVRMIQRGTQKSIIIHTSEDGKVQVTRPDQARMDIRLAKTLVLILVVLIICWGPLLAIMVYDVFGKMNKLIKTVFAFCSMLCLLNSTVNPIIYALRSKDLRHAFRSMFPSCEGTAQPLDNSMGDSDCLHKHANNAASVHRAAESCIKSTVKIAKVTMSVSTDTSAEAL

Row | SMILES | EC50 [2, 4] [nM] | CB2 Selectivity [1] | IC50 [1] [nM] | IC50 [3] [nM] | EC50 ([2]; read-out: MVD Assay EC50 (nM)) [nM]
1 | CCCn1ncc2c(=O)n(C3CC(C)(C)CC(C)(C)C3)ncc21 [Compound 34, 1-Propyl-5-(3,3,5,5-tetramethyl-cyclohexyl)pyrazolo[3,4-d]pyridazin-4-one] | – | 15 | 17 | 257 | 21
2 | CCCn1cc2c(=O)n(C3CC(C)(C)CC(C)(C)C3)ncc2n1 [Compound 35, 2-Propyl-5-(3,3,5,5-tetramethylcyclohexyl)pyrazolo[3,4-d]pyridazin-4-one] | – | >42 | 240 | > 10000 | 1200
3 | CC1(C)CC(n2ncc3nn(CCN4CCOCC4)cc3c2=O)CC(C)(C)C1 [Compound 37, 2-(2-Morpholin-4-ylethyl)-5-(3,3,5,5-tetramethylcyclohexyl)pyrazolo[3,4-d]pyridazin-4-one] | – | >7 | 1510 | > 10000 | 1400
4 | CN(C)CCn1ncc2c(=O)n(C3CC(C)(C)CC(C)(C)C3)ncc21 [Compound 38, 1-(2-Dimethylaminoethyl)-5-(3,3,5,5-tetramethylcyclohexyl)pyrazolo[3,4-d]pyridazin-4-one] | 130 | 38 | 105 | 3980 | –

The next lines start with results.

Row | EC50 [2, 4] [nM] | SMILES | CB2 Selectivity [1] | IC50 [1] [nM] | IC50 [3] [nM] | EC50 ([2]; read-out: MVD Assay EC50 (nM)) [nM]
5 | 330 | CN(C)CCN(C)c1cnn(C2CC(C)(C)CC(C)(C)C2)c(=O)c1Cl [Compound 31, 4-Chloro-5-(2-dimethylaminoethylmethylamino)-2-(3,3,5,5-tetramethyl-cyclohexyl)pyridazin-3-one] | 132 | 20 | 2630 | –
6 | 33 | CC1(C)CC(n2ncc3c(cnn3CCN3CCOCC3)c2=O)CC(C)(C)C1 [Compound 36, 1-(2-Morpholin-4-ylethyl)-5-(3,3,5,5-tetramethylcyclohexyl)pyrazolo[3,4-d]pyridazin-4-one] | 26 | 8.5 | 219 | –
